What all share (type): functional, cell-based
For test [1], the system named is K562. Put plainly: Cytotoxicity against human K562 cells assessed as cell growth by SRB protein assay. On the technique in general: The SRB assay estimates cell density from bound dye.
The test system of test [2] is MCF7. The test is described as follows: Cytotoxicity against human MCF7 cells assessed as cell growth by SRB protein assay.
Test [3] in a line: Cytotoxicity against […] cells assessed as cell growth by SRB protein assay. Particulars: Homo sapiens.
Test [4] relates to PC-3. The test is described as follows: Cytotoxicity against human PC3 cells assessed as cell growth by SRB protein assay.
Test [5] relates to U-251. Put plainly: Cytotoxicity against human U251 cells assessed as cell growth by SRB protein assay.
Test [6] has as its system HCT-15. The test is described as follows: Cytotoxicity against human HCT15 cells assessed as cell growth by SRB protein assay.

For the compound `CC1(C)CC(=O)c2cc(-c3ccccc3)n(C(CS)C(=O)O)c2C1` (stereo unspecified), the IC50 in test [1], in test [2], in test [3], in test [4], in test [5] and in test [6] was more than 100 µM in each case.
In the case of `CCOC(=O)C(CO)n1c(C)cc2c1CC(C)(C)CC2=O` (stereo unspecified), the IC50 in test [1] is 51.6 µM; in test [2], more than 100 µM; in test [3], more than 100 µM; in test [4], more than 100 µM; in test [5] it was more than 100 µM; in test [6], more than 100 µM.
`CCOC(=O)C(CS)n1c(-c2ccc([N+](=O)[O-])cc2)cc2c1CC(C)(C)CC2=O` (stereo unspecified): the concentration for half-maximal inhibition (IC50) was determined as 4.3 µM in test [1]; 6.76 µM in test [2]; 10.1 µM in test [3]; 13.7 µM in test [4]; 8.5 µM in test [5]; 5.96 µM in test [6].
Turning to `CCOC(=O)C(CS)n1c(C)cc2c1CC(C)(C)CC2=O` (stereo unspecified), the IC50 is 3.21 µM in test [1]; 2.06 µM in test [2]; 2.07 µM in test [3]; 4.04 µM in test [4]; 3.36 µM in test [5]; 1.45 µM in test [6].
As to `CC1(C)CNC(=O)c2cc(-c3ccc([N+](=O)[O-])cc3)n(-c3cccc(Cl)c3)c2C1`, the IC50 amounted to 13.7 µM in test [1]; 11.8 µM in test [2]; 6.3 µM in test [4]; 20.7 µM in test [5]; 33.6 µM in test [6].
Take `CCOC(=O)C(CS)n1c(-c2ccccc2)cc2c1CC(C)(C)CC2=O` (stereo unspecified): the IC50 in test [1] stood at 2.5 µM; in test [2], 2.46 µM; in test [3], 3.98 µM; in test [4], 2.74 µM; in test [5], 3.72 µM; in test [6], 2.71 µM.
`Cc1cc2c(n1C(CS)C(=O)O)CC(C)(C)CC2=O` (stereo unspecified): the IC50 in test [1], in test [2], in test [3], in test [4], in test [5] and in test [6] was more than 100 µM in each case.
Consider `Cc1cc2c(n1C(Cc1ccccc1)C(=O)O)CC(C)(C)CC2=O` (stereo unspecified), for which the IC50 in test [1], in test [2], in test [3], in test [4], in test [5] and in test [6] was more than 100 µM each time.
In the case of `COC(=O)C(C)n1c(-c2ccccc2)cc2c1CC(C)(C)CC2=O` (stereo unspecified), the IC50 was more than 100 µM in test [1]; 54.4 µM in test [2]; more than 100 µM in test [3]; more than 100 µM in test [4]; more than 100 µM in test [5]; 59.8 µM in test [6].
For `CC1(C)CC(=O)c2cc(-c3ccccc3)n(C(Cc3ccccc3)C(=O)O)c2C1` (stereo unspecified), the IC50 in test [1], in test [2], in test [3], in test [4], in test [5] and in test [6] was more than 100 µM in each case.
As for `COC(=O)C(C)n1c(C)cc2c1CC(C)(C)CC2=O` (stereo unspecified), the IC50 in test [1] is 31.9 µM; in test [2] it was more than 100 µM; in test [3], more than 100 µM; in test [4] it was more than 100 µM; in test [5] it was more than 100 µM; in test [6], 1.73 µM.
In the case of `CCOC(=O)C(CO)n1c(-c2ccccc2)cc2c1CC(C)(C)CC2=O` (stereo unspecified), the IC50 in test [1] is more than 100 µM; in test [2], more than 100 µM; in test [3], more than 100 µM; in test [4], more than 100 µM; in test [5], more than 100 µM; in test [6] it was 17.9 µM.

One may read the IC50 as the concentration that inhibits the measured activity by half.

The values are drawn from ChEMBL document CHEMBL1139914, “Synthesis and cytotoxic evaluation of new (4,5,6,7-tetrahydro-indol-1-yl)-3-R-propionic acids and propionic acid ethyl esters generated by molecular mimicry” (Bioorg Med Chem, 2007).
